pIC50: −log10 of the molar value. Where a SMILES comes first, the peptide text is derived from it. Bridges are numbered along the chain shown (N, C = ends).
Key:
[1] = Displacement of [125I]-alpha-bungarotoxin from Aplysia californica C-terminal His6-tagged N-terminal gp67 signal peptide-tagged acetylcholine receptor binding protein expressed in Hi5 insect cells preincubated for 3 hrs followed by [125I]-alpha-bungarotoxin measured after 5 mins by radioligand binding assay
Hi-5 = test: Displacement of [125I]-alpha-bungarotoxin from Aplysia californica C-terminal His6-tagged N-terminal gp67 signal peptide-tagged acetylcholine receptor binding protein expressed in Hi5 insect cells preincubated for 3 hrs followed by [125I]-alpha-bungarotoxin measured after 5 mins by radioligand binding assay relative to LvIA IC50; details: time 185.0 min
[2] = target: Neuronal acetylcholine receptor; alpha3/beta2 (Rattus norvegicus, UniProt P04757+P12390); test: Antagonist activity at rat alpha3beta2 nAChR expressed in Xenopus laevis oocytes assessed as inhibition of Ach-induced response at -70 mV holding potential incubated for 5 mins by voltage-clamp assay; type: cell-based, Oocyte
[3] = target: Neuronal acetylcholine receptor; alpha3/beta4 (Rattus norvegicus, UniProt P04757+P12392); test: Antagonist activity at rat alpha3beta4 nAChR expressed in Xenopus laevis oocytes assessed as inhibition of Ach-induced response at -70 mV holding potential incubated for 5 mins by voltage-clamp assay; type: cell-based, Oocyte
[4] = target: Neuronal acetylcholine receptor; alpha3/beta2 (Rattus norvegicus) (UniProt P04757+P12390); test: Antagonist activity at rat alpha3beta2 nAChR expressed in Xenopus laevis oocytes assessed as inhibition of Ach-induced response at -70 mV holding potential incubated for 5 mins by voltage-clamp assay relative to LvIA IC50; type: cell-based; details: Oocyte
[5] = target: Neuronal acetylcholine receptor; alpha3/beta4 (Rattus norvegicus) (UniProt P04757+P12392); test: Antagonist activity at rat alpha3beta4 nAChR expressed in Xenopus laevis oocytes assessed as inhibition of Ach-induced response at -70 mV holding potential incubated for 5 mins by voltage-clamp assay relative to LvIA IC50; type: cell-based; details: Oocyte
Rattus norvegicus = species: Rattus norvegicus; test: Selectivity index, ratio of IC50 for rat alpha3beta4 nAChR expressed in Xenopus laevis oocytes to IC50 for rat alpha3beta2 nAChR expressed in Xenopus laevis oocytes; type: cell-based

Neuronal acetylcholine receptor; alpha3/beta4, sequence (P04757 whole entry): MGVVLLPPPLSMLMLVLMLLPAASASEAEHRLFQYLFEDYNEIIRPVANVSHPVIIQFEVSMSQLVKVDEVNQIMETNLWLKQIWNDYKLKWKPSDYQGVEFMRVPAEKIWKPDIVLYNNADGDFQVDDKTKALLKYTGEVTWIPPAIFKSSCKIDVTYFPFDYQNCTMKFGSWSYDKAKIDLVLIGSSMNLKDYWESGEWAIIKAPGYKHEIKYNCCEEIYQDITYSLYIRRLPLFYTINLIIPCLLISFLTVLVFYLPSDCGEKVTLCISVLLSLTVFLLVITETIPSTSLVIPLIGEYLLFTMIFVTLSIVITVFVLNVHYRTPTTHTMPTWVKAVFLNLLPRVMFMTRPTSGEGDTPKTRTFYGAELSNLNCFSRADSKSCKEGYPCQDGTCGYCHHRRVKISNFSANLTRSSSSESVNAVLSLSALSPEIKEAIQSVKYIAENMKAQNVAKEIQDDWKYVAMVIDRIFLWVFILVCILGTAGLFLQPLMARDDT
Neuronal acetylcholine receptor; alpha3/beta4, sequence (P12392 whole entry): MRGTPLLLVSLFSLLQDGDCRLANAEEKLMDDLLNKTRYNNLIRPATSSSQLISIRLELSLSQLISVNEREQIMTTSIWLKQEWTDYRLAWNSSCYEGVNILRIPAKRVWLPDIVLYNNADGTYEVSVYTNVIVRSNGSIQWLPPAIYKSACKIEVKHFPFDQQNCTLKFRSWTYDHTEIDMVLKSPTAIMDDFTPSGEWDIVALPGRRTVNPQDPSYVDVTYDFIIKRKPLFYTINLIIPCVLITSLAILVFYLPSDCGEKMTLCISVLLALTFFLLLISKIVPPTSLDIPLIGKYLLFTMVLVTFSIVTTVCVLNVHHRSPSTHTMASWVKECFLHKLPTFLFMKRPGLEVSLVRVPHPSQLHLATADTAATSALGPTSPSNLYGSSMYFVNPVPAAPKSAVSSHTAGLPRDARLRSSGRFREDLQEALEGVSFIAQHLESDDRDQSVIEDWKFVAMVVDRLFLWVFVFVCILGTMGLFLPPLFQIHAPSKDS
Neuronal acetylcholine receptor; alpha3/beta2, sequence (P04757 whole entry): as the sequence (P04757 whole entry) above
Neuronal acetylcholine receptor; alpha3/beta2, sequence (P12390 whole entry): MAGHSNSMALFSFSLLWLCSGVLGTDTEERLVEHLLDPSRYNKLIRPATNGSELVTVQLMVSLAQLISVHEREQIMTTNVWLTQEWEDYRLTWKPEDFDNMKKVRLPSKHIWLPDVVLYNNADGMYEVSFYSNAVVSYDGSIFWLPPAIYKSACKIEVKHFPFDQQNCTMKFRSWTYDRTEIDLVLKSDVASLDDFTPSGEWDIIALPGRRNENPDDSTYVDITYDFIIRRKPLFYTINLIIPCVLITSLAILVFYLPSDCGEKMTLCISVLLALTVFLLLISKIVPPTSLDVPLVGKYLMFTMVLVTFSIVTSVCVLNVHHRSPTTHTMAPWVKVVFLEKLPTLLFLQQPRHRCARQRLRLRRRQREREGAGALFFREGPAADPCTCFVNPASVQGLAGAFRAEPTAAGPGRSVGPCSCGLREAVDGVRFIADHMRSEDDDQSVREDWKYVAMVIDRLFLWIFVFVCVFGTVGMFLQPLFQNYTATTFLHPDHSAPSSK

| Compound | pIC50 [1] | Ratio IC50 (Hi-5) | pIC50 [2] | pIC50 [3] | Ratio IC50 [4] | Ratio IC50 [5] | Ratio IC50 (Rattus norvegicus) |
| --- | --- | --- | --- | --- | --- | --- | --- |
| CC[C@H](C)[C@@H]1NC(=O)[C@H](CCC(=O)O)NC(=O)[C@@H]2CCCN2C(=O)[C@H](C)NC(=O)[C@H](CC(=O)O)NC(=O)[C@H](C(C)C)NC(=O)[C@H](CC(N)=O)NC(=O)[C@@H]2CSSC[C@H](NC(=O)CN)C(=O)N[C@@H](CSSC[C@@H](C(N)=O)NC1=O)C(=O)N[C@@H](CO)C(=O)N[C@@H](Cc1cnc[nH]1)C(=O)N1CCC[C@H]1C(=O)N[C@@H](C)C(=O)N2 (H-GCCSHPACNVDAPEIC-NH2; disulfide 2-8, 3-16) | 3.17 | 2.46 | < 5.00 | < 5.00 | – | – | – |
| CC[C@H](C)[C@@H]1NC(=O)[C@H](CCC(=O)O)NC(=O)[C@@H]2CCCN2C(=O)[C@H](Cc2cnc[nH]2)NC(=O)[C@H](C)NC(=O)[C@H](C(C)C)NC(=O)[C@H](CC(N)=O)NC(=O)[C@@H]2CSSC[C@H](NC(=O)CN)C(=O)N[C@@H](CSSC[C@@H](C(N)=O)NC1=O)C(=O)N[C@@H](CO)C(=O)N[C@@H](Cc1cnc[nH]1)C(=O)N1CCC[C@H]1C(=O)N[C@@H](C)C(=O)N2 (H-GCCSHPACNVAHPEIC-NH2; disulfide 2-8, 3-16) | 7.03 | -1.39 | 7.92 | 7.17 | 0.8 | 0.2 | 5.7 |
| CC[C@H](C)[C@@H]1NC(=O)[C@H](CCC(=O)O)NC(=O)[C@@H]2CCCN2C(=O)[C@H](Cc2cnc[nH]2)NC(=O)[C@H](CC(=O)O)NC(=O)[C@H](C(C)C)NC(=O)[C@H](CC(N)=O)NC(=O)[C@@H]2CSSC[C@H](NC(=O)CN)C(=O)N[C@@H](CSSC[C@@H](C(N)=O)NC1=O)C(=O)N[C@@H](C)C(=O)N[C@@H](Cc1cnc[nH]1)C(=O)N1CCC[C@H]1C(=O)N[C@@H](C)C(=O)N2 (H-GCCAHPACNVDHPEIC-NH2; disulfide 2-8, 3-16) | 6.11 | -0.47 | 7.27 | 6.71 | 3.5 | 0.7 | 3.6 |
| CC(C)[C@@H]1NC(=O)[C@H](CC(N)=O)NC(=O)[C@@H]2CSSC[C@H](NC(=O)CN)C(=O)N[C@@H](CSSC[C@@H](C(N)=O)NC(=O)[C@H](C)NC(=O)[C@H](CCC(=O)O)NC(=O)[C@@H]3CCCN3C(=O)[C@H](Cc3cnc[nH]3)NC(=O)[C@H](CC(=O)O)NC1=O)C(=O)N[C@@H](CO)C(=O)N[C@@H](Cc1cnc[nH]1)C(=O)N1CCC[C@H]1C(=O)N[C@@H](C)C(=O)N2 (H-GCCSHPACNVDHPEAC-NH2; disulfide 2-8, 3-16) | 4.62 | 1.02 | 5.97 | 5.86 | 69 | 4.8 | 1.3 |
| CC[C@H](C)[C@@H]1NC(=O)[C@H](CCC(=O)O)NC(=O)[C@@H]2CCCN2C(=O)[C@H](Cc2cnc[nH]2)NC(=O)[C@H](CC(=O)O)NC(=O)[C@H](C(C)C)NC(=O)[C@H](CC(C)C)NC(=O)[C@@H]2CSSC[C@H](NC(=O)CN)C(=O)N[C@@H](CSSC[C@@H](C(N)=O)NC1=O)C(=O)N[C@@H](CO)C(=O)N[C@@H](Cc1cnc[nH]1)C(=O)N1CCC[C@H]1C(=O)N[C@@H](C)C(=O)N2 (H-GCCSHPACLVDHPEIC-NH2; disulfide 2-8, 3-16) | – | – | 8.49 | 6.49 | – | – | 102 |
| CC[C@H](C)[C@@H]1NC(=O)[C@H](CCC(=O)O)NC(=O)[C@@H]2CCCN2C(=O)[C@H](Cc2cnc[nH]2)NC(=O)[C@H](CC(=O)O)NC(=O)[C@H](C(C)C)NC(=O)[C@H](CC(=O)O)NC(=O)[C@@H]2CSSC[C@H](NC(=O)CN)C(=O)N[C@@H](CSSC[C@@H](C(N)=O)NC1=O)C(=O)N[C@@H](CO)C(=O)N[C@@H](Cc1cnc[nH]1)C(=O)N1CCC[C@H]1C(=O)N[C@@H](C)C(=O)N2 (H-GCCSHPACDVDHPEIC-NH2; disulfide 2-8, 3-16) | – | – | < 5.00 | < 5.00 | 0.24 | 7.1 | – |
| CC[C@H](C)[C@@H]1NC(=O)[C@H](CCC(=O)O)NC(=O)[C@@H]2CCCN2C(=O)[C@H](Cc2cnc[nH]2)NC(=O)[C@H](CC(=O)O)NC(=O)[C@H](C(C)C)NC(=O)CNC(=O)[C@@H]2CSSC[C@H](NC(=O)CN)C(=O)N[C@@H](CSSC[C@@H](C(N)=O)NC1=O)C(=O)N[C@@H](CO)C(=O)N[C@@H](Cc1cnc[nH]1)C(=O)N1CCC[C@H]1C(=O)N[C@@H](C)C(=O)N2 (H-GCCSHPACGVDHPEIC-NH2; disulfide 2-8, 3-16) | – | – | < 5.00 | < 5.00 | 0.48 | 19.2 | – |
| CC[C@H](C)[C@@H]1NC(=O)[C@H](CCC(=O)O)NC(=O)[C@@H]2CCCN2C(=O)[C@H](Cc2cnc[nH]2)NC(=O)[C@H](CC(=O)O)NC(=O)[C@H](C(C)C)NC(=O)[C@H](CCCCN)NC(=O)[C@@H]2CSSC[C@H](NC(=O)CN)C(=O)N[C@@H](CSSC[C@@H](C(N)=O)NC1=O)C(=O)N[C@@H](CO)C(=O)N[C@@H](Cc1cnc[nH]1)C(=O)N1CCC[C@H]1C(=O)N[C@@H](C)C(=O)N2 (H-GCCSHPACKVDHPEIC-NH2; disulfide 2-8, 3-16) | – | – | 8.42 | 5.68 | – | – | 544 |
| CC[C@H](C)[C@@H]1NC(=O)[C@H](CCC(=O)O)NC(=O)[C@@H]2CCCN2C(=O)[C@H](Cc2cnc[nH]2)NC(=O)[C@H](CC(=O)O)NC(=O)[C@H](C)NC(=O)[C@H](CC(N)=O)NC(=O)[C@@H]2CSSC[C@H](NC(=O)CN)C(=O)N[C@@H](CSSC[C@@H](C(N)=O)NC1=O)C(=O)N[C@@H](CO)C(=O)N[C@@H](Cc1cnc[nH]1)C(=O)N1CCC[C@H]1C(=O)N[C@@H](C)C(=O)N2 (H-GCCSHPACNADHPEIC-NH2; disulfide 2-8, 3-16) | 5.60 | 0.036 | 7.15 | 6.51 | 4.5 | 1.1 | 4.4 |
| CC[C@H](C)[C@@H]1NC(=O)[C@H](CCC(=O)O)NC(=O)[C@@H]2CCCN2C(=O)[C@H](Cc2cnc[nH]2)NC(=O)[C@H](CC(=O)O)NC(=O)[C@H](C(C)C)NC(=O)[C@H](CC(N)=O)NC(=O)[C@@H]2CSSC[C@H](NC(=O)CN)C(=O)N[C@@H](CSSC[C@@H](C(N)=O)NC1=O)C(=O)N[C@@H](CO)C(=O)N[C@@H](C)C(=O)N1CCC[C@H]1C(=O)N[C@@H](C)C(=O)N2 (H-GCCSAPACNVDHPEIC-NH2; disulfide 2-8, 3-16) | 3.51 | 2.13 | < 5.00 | < 5.00 | – | – | – |
| CC[C@H](C)[C@@H]1NC(=O)[C@H](CCC(=O)O)NC(=O)[C@@H]2CCCN2C(=O)[C@H](Cc2cnc[nH]2)NC(=O)[C@H](CC(=O)O)NC(=O)[C@H](C(C)C)NC(=O)[C@H]([C@@H](C)CC)NC(=O)[C@@H]2CSSC[C@H](NC(=O)CN)C(=O)N[C@@H](CSSC[C@@H](C(N)=O)NC1=O)C(=O)N[C@@H](CO)C(=O)N[C@@H](Cc1cnc[nH]1)C(=O)N1CCC[C@H]1C(=O)N[C@@H](C)C(=O)N2 (H-GCCSHPACIVDHPEIC-NH2; disulfide 2-8, 3-16) | – | – | 8.12 | 5.25 | 0.21 | 1.1 | 742 |
| CC[C@H](C)[C@@H]1NC(=O)[C@H](C)NC(=O)[C@@H]2CCCN2C(=O)[C@H](Cc2cnc[nH]2)NC(=O)[C@H](CC(=O)O)NC(=O)[C@H](C(C)C)NC(=O)[C@H](CC(N)=O)NC(=O)[C@@H]2CSSC[C@H](NC(=O)CN)C(=O)N[C@@H](CSSC[C@@H](C(N)=O)NC1=O)C(=O)N[C@@H](CO)C(=O)N[C@@H](Cc1cnc[nH]1)C(=O)N1CCC[C@H]1C(=O)N[C@@H](C)C(=O)N2 (H-GCCSHPACNVDHPAIC-NH2; disulfide 2-8, 3-16) | 6.12 | -0.48 | 7.54 | 6.74 | 1.9 | 0.6 | 6.2 |
| CC[C@H](C)[C@@H]1NC(=O)[C@H](CCC(=O)O)NC(=O)[C@@H]2CCCN2C(=O)[C@H](Cc2cnc[nH]2)NC(=O)[C@H](CC(=O)O)NC(=O)[C@H](C(C)C)NC(=O)[C@H](CC(N)=O)NC(=O)[C@@H]2CSSC[C@H](NC(=O)[C@H](C)N)C(=O)N[C@@H](CSSC[C@@H](C(N)=O)NC1=O)C(=O)N[C@@H](CO)C(=O)N[C@@H](Cc1cnc[nH]1)C(=O)N1CCC[C@H]1C(=O)N[C@@H](C)C(=O)N2 (H-ACCSHPACNVDHPEIC-NH2; disulfide 2-8, 3-16) | 4.93 | 0.71 | 6.43 | 6.01 | 24 | 3.4 | 2.6 |
| CC[C@H](C)[C@@H]1NC(=O)[C@H](CCC(=O)O)NC(=O)[C@@H]2CCCN2C(=O)[C@H](Cc2cnc[nH]2)NC(=O)[C@H](CC(=O)O)NC(=O)[C@H](C(C)C)NC(=O)[C@H](CC(N)=O)NC(=O)[C@@H]2CSSC[C@H](NC(=O)CN)C(=O)N[C@@H](CSSC[C@@H](C(N)=O)NC1=O)C(=O)N[C@@H](CO)C(=O)N[C@@H](Cc1cnc[nH]1)C(=O)N[C@@H](C)C(=O)N[C@@H](C)C(=O)N2 (H-GCCSHAACNVDHPEIC-NH2; disulfide 2-8, 3-16) | 4.47 | 1.17 | < 5.00 | < 5.00 | – | – | – |
| CC[C@H](C)[C@@H]1NC(=O)[C@H](CCC(=O)O)NC(=O)[C@H](C)NC(=O)[C@H](Cc2cnc[nH]2)NC(=O)[C@H](CC(=O)O)NC(=O)[C@H](C(C)C)NC(=O)[C@H](CC(N)=O)NC(=O)[C@@H]2CSSC[C@H](NC(=O)CN)C(=O)N[C@@H](CSSC[C@@H](C(N)=O)NC1=O)C(=O)N[C@@H](CO)C(=O)N[C@@H](Cc1cnc[nH]1)C(=O)N1CCC[C@H]1C(=O)N[C@@H](C)C(=O)N2 (H-GCCSHPACNVDHAEIC-NH2; disulfide 2-8, 3-16) | 5.12 | 0.51 | 6.69 | 6.27 | 13 | 1.9 | 2.7 |
